Measured values taken from patent US8389730B2, “Compositions and methods for the treatment of disease associated with TRP-P8 expression” (Dendreon Corporation, priority 2003, dated 2013).

Tests used:
Trp-p8 = target: T1, Trp-p8 (Homo sapiens, UniProt Q7Z2W7, T58I); test: Cell viability (ATP) assay for Trp-p8 antagonists: protection of CHO/Trp-p8 cells from toxic control agonist D-1607; type: cell-based; details: 37° C., ATP level relative to DMSO; for Relative Viability (%) at 10 μM: Table 2, Formula VIII antagonists, 10 μM compound plus toxic concentration of control agonist D-1607, CHO/Trp-p8 cells; for Rel. Viab. (%) at 10 μM: Table 3, Formula VII antagonists, 10 μM compound plus toxic concentration of control agonist, CHO/Trp-p8 cells
T1 construct: expressed in transfected cells
T1 sequence (Q7Z2W7 whole entry T58I): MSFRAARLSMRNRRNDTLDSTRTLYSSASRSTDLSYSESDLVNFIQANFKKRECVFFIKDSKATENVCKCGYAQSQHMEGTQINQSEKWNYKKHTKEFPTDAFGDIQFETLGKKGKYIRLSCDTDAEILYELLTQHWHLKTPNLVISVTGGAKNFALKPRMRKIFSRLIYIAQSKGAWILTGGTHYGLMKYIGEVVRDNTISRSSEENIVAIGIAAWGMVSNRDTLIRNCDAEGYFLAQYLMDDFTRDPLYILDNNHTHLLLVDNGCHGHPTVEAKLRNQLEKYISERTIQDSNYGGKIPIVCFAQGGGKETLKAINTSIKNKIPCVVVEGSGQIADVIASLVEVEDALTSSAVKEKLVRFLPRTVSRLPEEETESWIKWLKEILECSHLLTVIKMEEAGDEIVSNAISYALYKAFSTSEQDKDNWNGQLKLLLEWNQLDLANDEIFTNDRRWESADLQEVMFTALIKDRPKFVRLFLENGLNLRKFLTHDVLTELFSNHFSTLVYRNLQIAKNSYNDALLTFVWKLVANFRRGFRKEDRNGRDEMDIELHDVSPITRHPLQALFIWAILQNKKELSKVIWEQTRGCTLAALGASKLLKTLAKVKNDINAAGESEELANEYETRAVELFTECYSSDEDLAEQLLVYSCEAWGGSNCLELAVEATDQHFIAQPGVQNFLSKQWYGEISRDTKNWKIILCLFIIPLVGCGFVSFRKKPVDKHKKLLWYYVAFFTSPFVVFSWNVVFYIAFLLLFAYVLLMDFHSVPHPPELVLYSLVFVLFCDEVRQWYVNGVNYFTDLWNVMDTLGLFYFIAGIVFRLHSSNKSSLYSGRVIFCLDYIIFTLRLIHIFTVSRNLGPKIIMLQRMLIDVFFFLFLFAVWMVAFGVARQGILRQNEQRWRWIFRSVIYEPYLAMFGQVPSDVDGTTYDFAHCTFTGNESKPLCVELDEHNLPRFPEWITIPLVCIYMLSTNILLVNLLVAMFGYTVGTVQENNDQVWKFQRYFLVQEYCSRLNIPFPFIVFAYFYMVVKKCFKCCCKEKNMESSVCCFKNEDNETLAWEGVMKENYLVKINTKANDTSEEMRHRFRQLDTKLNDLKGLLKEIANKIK
Protocol: FIG. 4 is a graph depicting exemplary results from a primary screen for Trp-p8 antagonists using the ATP viability assay, described herein, with CHO/Trp-p8 cells at 37° C. CHO/Trp-p8 cells were exposed to compounds, at different concentrations, in 1% DMSO or 1% DMSO in combination with a toxic concentration of the Trp-p8 agonist 1607. The viability of cells was measured after 24-26 hours at 37° C. using the ATP assay.
As a primary screen for efficacy and specificity for agonists, both the non-transfected CHO and CHO/Trp-p8 cells were exposed to 10 μM of test compounds in 1% dimethylsulfoxide (DMSO) or 1% DMSO (control) in a 96-well black walled, black-bottomed, cell-culture treated plate. DMSO was the solvent for all of the compounds tested. After 24-26 hours at 37° C., the cells were lysed and ATP concentration determined via a chemiluminescence assay using a commercially available reagent kit—Cell Titer-Glo (Promega; Madison, Wis.). […] (EC50 is defined herein as the agonist concentration at which there is a 50% reduction in cell viability).
Trp-p8 antagonists were identified by employing a cell viability assay with CHO/Trp-p8 cells at 37° C. (see Example 7) with the following modification. Within the context of the present invention, compounds that protect CHO/Trp-p8 cells from the toxic effect of a control agonist thereby maintaining the viability of the CHO/Trp-p8 cell exposed to a Trp-p8 agonist is defined as antagonist. As a primary screen for antagonists, CHO/Trp-p8 cells were exposed to 10 μM of test compounds in 1% dimethylsulfoxide (DMSO) or 1% DMSO plus a toxic concentration of a control agonist, D-1607.

Trp-p8 orthologues = details: reported by McKemy et al. and Peier et al.; cited from earlier work

Structure (SMILES)	Relative Viability (%) at 10 μM (Trp-p8) [%]	Rel. Viab. (%) at 10 μM (Trp-p8) [%]	also measured
CC(C)[C@@H]1CC[C@@H](C)C[C@H]1OC(=O)N1CCn2cccc2C1C (stereo partly shown) [compound 1940]	110	–	–
CC(C)[C@@H]1CC[C@@H](C)C[C@H]1OCC(=O)NCC1(c2ccccc2)CCCC1 [compound 1745]	88	–	–
Cc1ccc(C)n1-c1ccc(N2CCN(c3ccccc3)CC2)c([N+](=O)[O-])c1 [compound 103]	–	99	–
O=[N+]([O-])c1cc(Cl)ccc1N1CCN(c2ccc([N+](=O)[O-])c3cccnc23)CC1 [compound 34]	–	82	–
O=C1C(c2ccc(Cl)cc2)N(C2CCCCC2)C(=O)CN1C1CCCC1 (stereo not shown) [compound 1284]	–	95	–
O=C1c2ccccc2-c2onc3c(N4CCN(C5CCCCC5)CC4)cc(Nc4ccc5c(c4)OCCO5)c1c23 [compound 882]	–	86	–
CC(C)[C@@H]1CC[C@@H](C)C[C@H]1NS(=O)(=O)c1cc(Br)c(Br)s1 [compound 2134]	63	–	–
CC(C)[C@@H]1CC[C@@H](C)CC1C(=O)N1c2ccccc2CC1C (stereo partly shown) [compound 1588]	88	–	–
Cc1ccccc1CCNC(=O)CO[C@@H]1C[C@H](C)CC[C@H]1C(C)C [compound 1923]	116	–	–
Cc1ccc(O)c(CN[C@@H]2C[C@H](C)CC[C@H]2C(C)C)c1 [compound 2710]	70	–	–
OC(F)(F)Oc1ccc(Nc2nc(N3CCCCCC3)nc(N3CCN(C45CC6CC(CC(C6)C4)C5)CC3)n2)cc1 [compound 812]	–	99	–
CC(NC(=O)CO[C@@H]1C[C@H](C)CC[C@H]1C(C)C)c1ccccc1 (stereo partly shown) [compound 1664]	107	–	–
Cc1ccnc(N(Cc2ccccc2)C(=O)[C@@H]2C[C@H](C)CC[C@H]2C(C)C)c1 [compound 2639]	102	–	–
CC(C)[C@@H]1CC[C@@H](C)C[C@H]1NC(=O)NCCN1CCCc2ccccc21 [compound 1815]	87	–	–
Cc1ccc(C(c2sc3nc(C)nn3c2O)N2CCN(C(c3ccccc3)c3ccccc3)CC2)cc1 (stereo not shown) [compound 1019]	–	87	–
CC(C)[C@@H]1CC[C@@H](C)C[C@H]1NC(=O)NCCCSC1CCCCC1 [compound 1882]	85	–	–
Cc1ccc(C2C(=O)N(C3CCC(C)CC3)CC(=O)N2C2CCCC2)cc1 (stereo not shown) [compound 1262]	–	86	–
Cc1cc(N2CCN(c3cc(N4CCN(CCO)CC4)ccc3[N+](=O)[O-])CC2)c2ccccc2n1 [compound 74]	–	81	–
CC(C)[C@@H]1CC[C@@H](C)C[C@H]1OC(=O)N1CCc2ccccc2C1 [compound 1457]	112	–	–
Cc1nc2sc(C(c3cccc(F)c3)N3CCN(C(c4ccccc4)c4ccccc4)CC3)c(O)n2n1 (stereo not shown) [compound 1026]	–	92	–
Cc1nc2sc(C(c3cccs3)N3CCN(C(c4ccccc4)c4ccccc4)CC3)c(O)n2n1 (stereo not shown) [compound 1039]	–	84	–
O=C1C(c2ccc(F)cc2Cl)N(C2CCCc3ccccc32)C(=O)CN1C1CCCCCC1 (stereo not shown) [compound 1280]	–	87	–
CC(C)[C@@H]1CC[C@@H](C)C[C@H]1NC(=O)[C@@H]1C[C@H]1c1ccccc1 [compound 2013]	95	–	–
CC(C)[C@@H]1CC[C@@H](C)C[C@H]1NC(=O)SCc1ccccc1Cl [compound 2306]	92	–	–
Cc1cc(N2CCN(Cc3ccc4c(c3)SCO4)CC2)n2nc(C)c(-c3ccc(Br)cc3)c2n1 [compound 1313]	–	92	–
O=C1C(c2ccc(Cl)cc2)N(C2CCCCCC2)C(=O)CN1C1CCCC1 (stereo not shown) [compound 1283]	–	100	–

Structure (SMILES)	Relative Viability (%) at 10 μM (Trp-p8) [%]	Rel. Viab. (%) at 10 μM (Trp-p8) [%]	also measured
CC(C)[C@@H]1CC[C@@H](C)C[C@H]1OCC(=O)N1CCc2ccccc2C1 [compound 1688]	91	–	–
CC(C)[C@@H]1CC[C@@H](C)C[C@H]1C(=O)Nc1nnc(Sc2ccnc3cc(Cl)ccc23)s1 [compound 3026]	86	–	–
O=C1NC(c2cccc([N+](=O)[O-])c2)=CCN1c1ccccc1O [Icilin, 1-(2-hydroxyphenyl)-4-(3-nitrophenyl)-1,2,3,6-tetrahydropyrimidine-2-one]	–	–	Effective concentration in inducing calcium influx (Trp-p8 orthologues): 0.1 to 1 µM
CC(C)[C@@H]1CC[C@@H](C)C[C@H]1OCC(=O)N1CCn2cccc2C1C (stereo partly shown) [compound 1918]	94	–	–
COc1ccccc1CNC(=O)CO[C@@H]1C[C@H](C)CC[C@H]1C(C)C [compound 1673]	112	–	–
c1ccc(CNc2nc(N3CCN(c4ccccc4)CC3)nc3ccccc23)cc1 [compound 67]	–	102	–
CC(C)[C@@H]1CC[C@@H](C)C[C@H]1NC(=O)[C@@]12CC[C@@](C)(C(=O)O1)C2(C)C [compound 2046]	89	–	–
CC(C)[C@@H]1CC[C@@H](C)C[C@H]1C(=O)Nc1ccc(S(=O)(=O)N2CCCCCC2)cc1 [compound 2865]	91	–	–
CCCCOc1ccc(-c2n[nH]cc2CN[C@@H]2C[C@H](C)CC[C@H]2C(C)C)cc1 [compound 2777]	83	–	–
Cc1nc(N2CCOCC2)nc(N2CCN(c3ccccc3)CC2)c1[N+](=O)[O-] [compound 69]	–	106	–
CC(C)[C@@H]1CC[C@@H](C)C[C@H]1NCc1c[nH]nc1-c1ccc(F)cc1 [compound 2752]	65	–	–
CC(C)[C@@H]1CC[C@@H](C)C[C@H]1NC(=O)N1c2ccccc2CC1C (stereo partly shown) [compound 1781]	91	–	–
CC(C)[C@@H]1CC[C@@H](C)C[C@H]1NS(=O)(=O)c1c(Cl)cc(Cl)cc1Cl [compound 2131]	59	–	–
O=C1c2ccccc2-c2onc3c(N4CCN(C5CCCCC5)CC4)cc(Nc4ccc5c(c4)OCO5)c1c23 [compound 881]	–	82	–
N#Cc1nc(COc2ccccc2F)oc1N1CCN(c2ccccc2)CC1 [compound 711]	–	94	–
CC(C)[C@@H]1CC[C@@H](C)C[C@H]1OCC(=O)N1c2ccccc2CC1C (stereo partly shown) [compound 1691]	92	–	–
CC(C)[C@@H]1CC[C@@H](C)C[C@H]1NC(=O)N1CCc2ccccc2C1 [compound 1819]	86	–	–
O=[N+]([O-])c1ccc(N2CCN(c3ccc(C(F)(F)F)cc3[N+](=O)[O-])CC2)cc1NCc1ccccc1 [compound 27]	–	87	–
CC(C)[C@@H]1CC[C@@H](C)C[C@H]1OC(=O)N1CCc2ccccc21 [compound 1504]	90	–	–
Clc1ccccc1N1CCN(c2ncnc3c2cnn3-c2ccccc2)CC1 [compound 51]	–	100	–
CCCC1c2cccn2CCN1C(=O)O[C@@H]1C[C@H](C)CC[C@H]1C(C)C (stereo partly shown) [compound 1941]	98	–	–
CC1CCC(C(C)C)C(OCC(O)CN2CCN(Cc3ccc(Cl)cc3)CC2)C1 (stereo not shown) [compound 2496]	–	82	–
Cc1nc2sc(C(c3cccc(O)c3)N3CCN(C(c4ccccc4)c4ccccc4)CC3)c(O)n2n1 (stereo not shown) [compound 1027]	–	84	–
CCCC1c2cccn2CCC1C(=O)N[C@@H]1C[C@H](C)CC[C@H]1C(C)C (stereo partly shown) [compound 1838]	88	–	–
CC(C)[C@@H]1CC[C@@H](C)C[C@H]1NC(=O)CCC1CCCC1 [compound 1996]	89	–	–
COc1cc(C(c2sc3nc(C)nn3c2O)N2CCN(C(c3ccccc3)c3ccccc3)CC2)cc(OC)c1OC (stereo not shown) [compound 1028]	–	85	–
